Data published in US10457709B2, “Antimicrobial peptides, their variants and uses” (priority 2015, dated 2019).
Like-named read-outs stand apart in the source and are kept apart here. Square brackets hold non-standard residues; d marks the D form. Peptide text beside a SMILES is read from it.

Columns and labels:
[1] = tested on: Candida albicans clinical strains; assay: MIC, clinical yeast strains; type: cell-based; set-up: unit: μg/ml
Method in brief: (§1)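 Antifungal testing uses potato dextrose broth; antibacterial testing uses Mueller Hinton broth. Cell density is set to 5.0×10^5 cfu/ml and incubation runs 20–24 h at 37° C. MIC is the lowest concentration, within 0.125–128 μg/ml, at which no growth is visible.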

[2] = tested on: C. parapsilosis clinical strains; assay: MIC, clinical yeast strains; type: cell-based, Candida parapsilosis; set-up: unit: µg/ml
Method in brief: as §1

[3] = tested on: C. quillermondiae clinical strains; assay: MIC, clinical yeast strains; type: cell-based, Candida quillermondiae; set-up: unit: μg/ml; settings: C. quillermondiae clinical yeast strain 1
Method in brief: as §1

[4] = tested on: Pseudomonas aeruginosa clinical strains; type: cell-based; settings: microdilution, Muller Hinton broth-cation adjusted, 0.02% BSA, 0.2% acetic acid
Method in brief: as §1

[5] = tested on: Escherichia coli clinical strains; type: cell-based; settings: microdilution, Muller Hinton broth-cation adjusted, 0.02% BSA, 0.2% acetic acid
Method in brief: as §1

[6] = tested on: Klebsiella pneumoniae clinical strains; type: cell-based; settings: microdilution, Muller Hinton broth-cation adjusted, 0.02% BSA, 0.2% acetic acid
Method in brief: as §1

[7] = tested on: Staphylococcus aureus clinical strains; type: cell-based; set-up: Minimum inhibitory concentration: unit: μg/ml; settings: microdilution, Muller Hinton broth-cation adjusted, 0.02% BSA, 0.2% acetic acid
Method in brief: as §1

[8] = tested on: Enterobacter cloacae clinical strains; type: cell-based; set-up: Minimum inhibitory concentration: unit: μg/ml; settings: microdilution, Muller Hinton broth-cation adjusted, 0.02% BSA, 0.2% acetic acid
Method in brief: as §1

[9] = tested on: Serratia marcescens clinical strains; type: cell-based; set-up: Minimum inhibitory concentration: unit: μg/ml; settings: microdilution, Muller Hinton broth-cation adjusted, 0.02% BSA, 0.2% acetic acid
Method in brief: as §1

[10] = tested on: Streptococcus pneumoniae clinical strains; type: cell-based; set-up: Minimum inhibitory concentration: unit: μg/ml; settings: microdilution, Muller Hinton broth-cation adjusted, 0.02% BSA, 0.2% acetic acid
Method in brief: as §1

[11] = tested on: Proteus mirabilis clinical strains; type: cell-based; set-up: Minimum inhibitory concentration: unit: μg/ml; settings: microdilution, Muller Hinton broth-cation adjusted, 0.02% BSA, 0.2% acetic acid
Method in brief: as §1

[12] = tested on: C. glabrata clinical strains; assay: MIC, clinical yeast strains; type: cell-based, Candida glabrata; set-up: unit: µg/ml
Method in brief: as §1

**Q.** CC(C)C[C@@H](NC(=O)[C@@H](CCCCN)NC(=O)[C@@H](CCCCN)NC(=O)[C@@H](Cc1ccccc1)NC(=O)[C@@H](CC(C)C)NC(=O)[C@@H](Cc1c[nH]c2ccccc12)NC(=O)[C@@H](CCCNC(=N)N)NC(=O)[C@@H](Cc1c[nH]c2ccccc12)NC(=O)[C@@H](CCCCN)NC(=O)[C@@H](CCCNC(=N)N)NC(=O)[C@H](N)CCCCN)C(=O)O [Chain310D] (H-[dK][dR][dK][dW][dR][dW][dL][dF][dK][dK][dL]-OH) was tested. Which Minimum inhibitory concentration ([1]; Candida albicans clinical yeast strain 1) did it give?
**A.** 16

**Q.** What about the Minimum inhibitory concentration ([1]; Candida albicans clinical yeast strain 2) of the same compound?
**A.** 16

**Q.** And the Minimum inhibitory concentration ([1]; Candida albicans clinical yeast strain 3)?
**A.** 16

**Q.** And the Minimum inhibitory concentration ([1]; Candida albicans clinical yeast strain 4)?
**A.** 16

**Q.** What about the Minimum inhibitory concentration ([1]; Candida albicans clinical yeast strain 5) of the same compound?
**A.** 16

**Q.** What about the Minimum inhibitory concentration ([2]; C. parapsilosis clinical yeast strain 1) of the same compound?
**A.** 64

**Q.** What about the Minimum inhibitory concentration ([2]; C. parapsilosis clinical yeast strain 2) of the same compound?
**A.** 64

**Q.** And the Minimum inhibitory concentration ([2]; C. parapsilosis clinical yeast strain 3)?
**A.** 64

**Q.** And the Minimum inhibitory concentration ([2]; C. parapsilosis clinical yeast strain 4)?
**A.** 16

**Q.** And the Minimum inhibitory concentration [3]?
**A.** 8

**Q.** And the Minimum inhibitory concentration ([4]; Pseudomonas aeruginosa clinical strain 1)?
**A.** 8

**Q.** What about the Minimum inhibitory concentration ([4]; Pseudomonas aeruginosa clinical strain 2) of the same compound?
**A.** 16

**Q.** And the Minimum inhibitory concentration ([4]; Pseudomonas aeruginosa clinical strain 3)?
**A.** 16

**Q.** What about the Minimum inhibitory concentration ([4]; Pseudomonas aeruginosa clinical strain 4) of the same compound?
**A.** 8

**Q.** And the Minimum inhibitory concentration ([4]; Pseudomonas aeruginosa clinical strain 5)?
**A.** 4

**Q.** And the Minimum inhibitory concentration ([5]; Escherichia coli clinical strain 1)?
**A.** 4

**Q.** What about the Minimum inhibitory concentration ([5]; Escherichia coli clinical strain 2) of the same compound?
**A.** 32

**Q.** What about the Minimum inhibitory concentration ([5]; Escherichia coli clinical strain 3) of the same compound?
**A.** 16

**Q.** What about the Minimum inhibitory concentration ([5]; Escherichia coli clinical strain 4) of the same compound?
**A.** 16

**Q.** What about the Minimum inhibitory concentration ([5]; Escherichia coli clinical strain 5) of the same compound?
**A.** 16

**Q.** And the Minimum inhibitory concentration ([6]; Klebsiella pneumoniae clinical strain 1)?
**A.** 64

**Q.** And the Minimum inhibitory concentration ([6]; Klebsiella pneumoniae clinical strain 2)?
**A.** 64

**Q.** What about the Minimum inhibitory concentration ([6]; Klebsiella pneumoniae clinical strain 3) of the same compound?
**A.** 128

**Q.** And the Minimum inhibitory concentration ([6]; Klebsiella pneumoniae clinical strain 4)?
**A.** 64

**Q.** What about the Minimum inhibitory concentration ([6]; Klebsiella pneumoniae clinical strain 5) of the same compound?
**A.** 32

**Q.** What about the Minimum inhibitory concentration ([7]; Staphylococcus aureus clinical strain 1) of the same compound?
**A.** 8

**Q.** What about the Minimum inhibitory concentration ([7]; Staphylococcus aureus clinical strain 2) of the same compound?
**A.** 16

**Q.** And the Minimum inhibitory concentration ([7]; Staphylococcus aureus clinical strain 3)?
**A.** 8

**Q.** And the Minimum inhibitory concentration ([7]; Staphylococcus aureus clinical strain 4)?
**A.** 8

**Q.** And the Minimum inhibitory concentration ([7]; Staphylococcus aureus clinical strain 5)?
**A.** 4

**Q.** What about the Minimum inhibitory concentration ([8]; Enterobacter cloacae clinical strain 1) of the same compound?
**A.** 128

**Q.** What about the Minimum inhibitory concentration ([8]; Enterobacter cloacae clinical strain 2) of the same compound?
**A.** 64

**Q.** And the Minimum inhibitory concentration ([8]; Enterobacter cloacae clinical strain 3)?
**A.** 16

**Q.** And the Minimum inhibitory concentration ([8]; Enterobacter cloacae clinical strain 4)?
**A.** 8

**Q.** What about the Minimum inhibitory concentration ([8]; Enterobacter cloacae clinical strain 5) of the same compound?
**A.** 16

**Q.** And the Minimum inhibitory concentration ([9]; Serratia marcescens clinical strain 1)?
**A.** >128

**Q.** What about the Minimum inhibitory concentration ([9]; Serratia marcescens clinical strain 2) of the same compound?
**A.** >128

**Q.** What about the Minimum inhibitory concentration ([9]; Serratia marcescens clinical strain 3) of the same compound?
**A.** >128

**Q.** What about the Minimum inhibitory concentration ([9]; Serratia marcescens clinical strain 4) of the same compound?
**A.** >128

**Q.** And the Minimum inhibitory concentration ([9]; Serratia marcescens clinical strain 5)?
**A.** >128

**Q.** And the Minimum inhibitory concentration ([10]; Streptococcus pneumoniae clinical strain 1)?
**A.** 128

**Q.** And the Minimum inhibitory concentration ([10]; Streptococcus pneumoniae clinical strain 2)?
**A.** 128

**Q.** And the Minimum inhibitory concentration ([10]; Streptococcus pneumoniae clinical strain 3)?
**A.** 128

**Q.** What about the Minimum inhibitory concentration ([10]; Streptococcus pneumoniae clinical strain 4) of the same compound?
**A.** 128

**Q.** What about the Minimum inhibitory concentration ([10]; Streptococcus pneumoniae clinical strain 5) of the same compound?
**A.** 64

**Q.** And the Minimum inhibitory concentration ([11]; Proteus mirabilis clinical strain 1)?
**A.** >128

**Q.** And the Minimum inhibitory concentration ([11]; Proteus mirabilis clinical strain 2)?
**A.** >128

**Q.** And the Minimum inhibitory concentration ([11]; Proteus mirabilis clinical strain 3)?
**A.** >128

**Q.** What about the Minimum inhibitory concentration ([11]; Proteus mirabilis clinical strain 4) of the same compound?
**A.** >128

**Q.** What about the Minimum inhibitory concentration ([11]; Proteus mirabilis clinical strain 5) of the same compound?
**A.** >128

**Q.** And the Minimum inhibitory concentration ([12]; C. glabrata clinical yeast strain 1)?
**A.** 16

**Q.** What about the Minimum inhibitory concentration ([12]; C. glabrata clinical yeast strain 2) of the same compound?
**A.** 16

**Q.** And the Minimum inhibitory concentration ([12]; C. glabrata clinical yeast strain 3)?
**A.** 128

**Q.** And the Minimum inhibitory concentration ([12]; C. glabrata clinical yeast strain 4)?
**A.** 128
